# ChEMBL document CHEMBL1154073, “Combining selectivity and affinity predictions using an integrated Support Vector Machine (SVM) approach: An alternative tool to discriminate between the human adenosine A(2A) and A(3) receptor pyrazolo-triazolo-pyrimidine antagonists binding sites” (Bioorg Med Chem, 2009)
# How the values were obtained:
# Adenosine receptor A2a = Adenosine receptor A2a (Homo sapiens, UniProt P29274); experiment: biochemical
# Description: Displacement of [3H]NECA from human adenosine A2A receptor expressed in CHO cells
# Adenosine receptor A1 = target: T1, Adenosine receptor A1 (Homo sapiens, UniProt P30542); experiment: Displacement of [3H]CCPA from human adenosine A1 receptor expressed in CHO cells; type: cell-based
# T1 sequence (P30542 whole entry): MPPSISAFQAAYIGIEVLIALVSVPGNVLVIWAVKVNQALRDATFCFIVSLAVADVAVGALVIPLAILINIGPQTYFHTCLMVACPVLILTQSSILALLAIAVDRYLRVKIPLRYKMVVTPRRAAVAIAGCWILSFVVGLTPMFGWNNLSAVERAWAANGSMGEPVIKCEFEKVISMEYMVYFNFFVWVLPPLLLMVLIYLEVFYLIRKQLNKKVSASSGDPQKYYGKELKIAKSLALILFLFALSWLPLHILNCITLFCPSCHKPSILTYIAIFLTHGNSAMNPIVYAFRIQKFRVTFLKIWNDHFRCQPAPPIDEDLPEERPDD
# Adenosine receptor A3 = target: T2, Adenosine receptor A3 (Homo sapiens, UniProt P0DMS8); experiment: Displacement of [3H]NECA from human adenosine A3 receptor expressed in CHO cells; type: cell-based
# T2 sequence (P0DMS8 whole entry): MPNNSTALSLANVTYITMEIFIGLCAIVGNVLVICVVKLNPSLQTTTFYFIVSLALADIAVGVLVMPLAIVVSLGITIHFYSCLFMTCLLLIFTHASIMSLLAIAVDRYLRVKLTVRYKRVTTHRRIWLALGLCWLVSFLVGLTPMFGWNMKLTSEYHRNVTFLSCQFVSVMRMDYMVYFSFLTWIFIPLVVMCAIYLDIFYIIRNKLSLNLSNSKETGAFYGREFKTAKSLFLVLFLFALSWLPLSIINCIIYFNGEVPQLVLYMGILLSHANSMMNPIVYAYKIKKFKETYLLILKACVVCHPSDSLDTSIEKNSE
# Adenosine receptor A2b = target: T3, Adenosine receptor A2b (Homo sapiens, UniProt P29275); experiment: Antagonist activity at human adenosine A2B receptor expressed in CHO cells assessed as inhibition of NECA-induced adenylyl cyclase activity; type: functional, cell-based
# T3 sequence (P29275 whole entry): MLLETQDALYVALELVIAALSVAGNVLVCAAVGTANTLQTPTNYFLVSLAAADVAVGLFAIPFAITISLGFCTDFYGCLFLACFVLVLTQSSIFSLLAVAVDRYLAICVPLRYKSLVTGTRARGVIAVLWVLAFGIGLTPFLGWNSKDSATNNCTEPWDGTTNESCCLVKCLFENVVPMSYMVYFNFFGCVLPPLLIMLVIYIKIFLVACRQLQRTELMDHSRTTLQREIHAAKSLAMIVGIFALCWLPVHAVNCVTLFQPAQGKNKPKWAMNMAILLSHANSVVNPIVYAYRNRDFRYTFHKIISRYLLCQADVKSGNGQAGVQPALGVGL
# Adenosine receptor A2a, sequence (P29274 whole entry): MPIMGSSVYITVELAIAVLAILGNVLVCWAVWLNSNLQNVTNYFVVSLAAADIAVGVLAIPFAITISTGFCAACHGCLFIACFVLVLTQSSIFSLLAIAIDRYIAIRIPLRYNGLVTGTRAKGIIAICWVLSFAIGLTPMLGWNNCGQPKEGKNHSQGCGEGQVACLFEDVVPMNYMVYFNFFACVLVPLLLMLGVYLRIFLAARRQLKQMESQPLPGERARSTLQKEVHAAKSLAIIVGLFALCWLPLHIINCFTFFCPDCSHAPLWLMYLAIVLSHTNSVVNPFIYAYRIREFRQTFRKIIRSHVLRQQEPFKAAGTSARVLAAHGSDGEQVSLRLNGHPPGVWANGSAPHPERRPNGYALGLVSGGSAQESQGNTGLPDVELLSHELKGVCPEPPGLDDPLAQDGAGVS
SMILES,Ki (Adenosine receptor A2a),Ki (Adenosine receptor A1),Ki (Adenosine receptor A3),IC50 (Adenosine receptor A2b)
O=C(Cc1cccc(Cl)c1)Nc1nc2nn(CCCc3ccccc3)cc2c2nc(-c3ccco3)nn12,182 nM,605 nM,110 nM,50000 nM
COc1ccc(NC(=O)Nc2nc3nn(CCc4c(Br)cc(Br)cc4Br)cc3c3nc(-c4ccco4)nn23)cc1,2030 nM,–,25 nM,–
O=C(Cc1c(Cl)cccc1Cl)Nc1nc2nn(CCCc3ccccc3)cc2c2nc(-c3ccco3)nn12,186 nM,786 nM,601 nM,> 10000 nM
CCCCn1cc2c(nc(NC(=O)C(c3ccccc3)c3ccccc3)n3nc(-c4ccco4)nc23)n1,114 nM,129 nM,1.2 nM,780 nM
CCCCn1cc2c(nc(NC(=O)Cc3cccc4ccccc34)n3nc(-c4ccco4)nc23)n1,–,170 nM,100 nM,7370 nM
CCCn1cc2c(nc(NC(=O)C(c3ccccc3)c3ccccc3)n3nc(-c4ccco4)nc23)n1,46.5 nM,80.2 nM,0.93 nM,491 nM
O=C(Nc1nc2nn(CCCc3ccccc3)cc2c2nc(-c3ccco3)nn12)C(c1ccccc1)c1ccccc1,326 nM,307 nM,12.6 nM,> 10000 nM
Nc1nc2c(cnn2CCCc2ccc3c(c2)O[C@@H](C(=O)O)O3)c2nc(-c3ccco3)nn12,59 nM,–,> 10000 nM,–
CCCn1cc2c(nc(NC(=O)Cc3ccc(-c4ccccc4)cc3)n3nc(-c4ccco4)nc23)n1,52.5 nM,622 nM,65.4 nM,> 10000 nM
Cn1cc2c(nc(NC(=O)Cc3ccc4ccccc4c3)n3nc(-c4ccco4)nc23)n1,77.5 nM,190 nM,14.5 nM,> 10000 nM
CCn1cc2c(nc(NC(=O)C(c3ccccc3)c3ccccc3)n3nc(-c4ccco4)nc23)n1,131 nM,–,0.98 nM,–
O=C(Nc1cccc(Cl)c1)Nc1nc2nn(CCc3c(Br)cc(Br)cc3Br)cc2c2nc(-c3ccco3)nn12,3600 nM,–,71 nM,–
O=C(Cc1ccc(Cl)cc1)Nc1nc2nn(CCCc3ccccc3)cc2c2nc(-c3ccco3)nn12,89.9 nM,256 nM,30.5 nM,> 10000 nM
CCn1cc2c(nc(N)n3nc(-c4ccco4)nc23)n1,–,–,3760 nM,–
CC(C)(C)OC(=O)NCCCC(=O)Nc1nc2nn(CCc3ccccc3)cc2c2nc(-c3ccco3)nn12,288 nM,–,–,–
Cn1cc2c(nc(NC(=O)COc3ccccc3)n3nc(-c4ccco4)nc23)n1,–,–,692 nM,–
COc1ccc(NC(=O)Nc2nc3nn(Cc4cccc5ccccc45)cc3c3nc(-c4ccco4)nn23)cc1,3260 nM,–,16 nM,–
CC(C)CCn1cc2c(nc(NC(=O)Cc3ccc(-c4ccccc4)cc3)n3nc(-c4ccco4)nc23)n1,–,84.3 nM,268 nM,8960 nM
Cn1cc2c(nc(NC(=O)Cc3cccc4ccccc34)n3nc(-c4ccco4)nc23)n1,80.5 nM,872 nM,3.47 nM,> 10000 nM

SMILES,Ki (Adenosine receptor A2a),Ki (Adenosine receptor A1),Ki (Adenosine receptor A3),IC50 (Adenosine receptor A2b)
O=C(Cc1ccc2ccccc2c1)Nc1nc2nn(CCCc3ccccc3)cc2c2nc(-c3ccco3)nn12,73.6 nM,241 nM,717 nM,> 50000 nM
COc1ccc(CC(=O)Nc2nc3nn(C)c(SC)c3c3nc(-c4ccco4)nn23)cc1,–,–,> 1000 nM,–
O=C(Cc1ccccc1)Nc1nc2nn(CCc3ccccc3)cc2c2nc(-c3ccco3)nn12,43.9 nM,128 nM,5.49 nM,> 3000 nM
CC(C)CCn1cc2c(nc(NC(=O)Cc3cccs3)n3nc(-c4ccco4)nc23)n1,–,–,308 nM,–
O=C(Nc1nc2nn(CCc3ccccc3)cc2c2nc(-c3ccco3)nn12)C(c1ccccc1)c1ccccc1,53.1 nM,115 nM,6.49 nM,5840 nM
COc1ccc(CC(=O)Nc2nc3nn(CCCc4ccccc4)cc3c3nc(-c4ccco4)nn23)cc1,–,–,120 nM,–
O=C(Cc1cccc2ccccc12)Nc1nc2nn(CCCc3ccccc3)cc2c2nc(-c3ccco3)nn12,305 nM,710 nM,343 nM,> 100000 nM
CSc1c2c(nc(NC(=O)Cc3ccc(OCC(C)C)cc3)n3nc(-c4ccco4)nc23)nn1C,50 nM,–,> 1000 nM,–
CCCCn1cc2c(nc(NC(=O)Cc3ccc4ccccc4c3)n3nc(-c4ccco4)nc23)n1,7.94 nM,–,174 nM,–
Cn1cc2c(nc(NC(=O)Cc3ccc(C(F)(F)F)cc3)n3nc(-c4ccco4)nc23)n1,75.9 nM,768 nM,1.22 nM,> 10000 nM
C=Cn1cc2c(nc(NC(=O)Nc3ccc(OC)cc3)n3nc(-c4ccco4)nc23)n1,176 nM,–,0.48 nM,–
O=C(Cc1ccsc1)Nc1nc2nn(CCc3ccccc3)cc2c2nc(-c3ccco3)nn12,–,22.8 nM,726 nM,> 10000 nM
O=C(Cc1cccc(Cl)c1)Nc1nc2nn(CCc3ccccc3)cc2c2nc(-c3ccco3)nn12,–,13.2 nM,273 nM,9100 nM
Nc1nc2nn(CCc3c(Br)cc(Br)cc3Br)cc2c2nc(-c3ccco3)nn12,348 nM,–,4480 nM,–
CC(C)CCn1cc2c(nc(NC(=O)CCCNC(=O)OC(C)(C)C)n3nc(-c4ccco4)nc23)n1,297 nM,–,–,–
O=C(COc1ccc(Cl)cc1)Nc1nc2nn(CCCc3ccccc3)cc2c2nc(-c3ccco3)nn12,–,71.1 nM,400 nM,> 10000 nM
O=C(Cc1cccs1)Nc1nc2nn(CCc3ccccc3)cc2c2nc(-c3ccco3)nn12,–,18.5 nM,330 nM,> 10000 nM
Nc1nc2c(cnn2CCCc2ccc3c(c2S(=O)(=O)O)OCO3)c2nc(-c3ccco3)nn12,75 nM,–,> 10000 nM,–

# More lines, in order of falling Ki (Adenosine receptor A2a), values ahead:
Ki (Adenosine receptor A2a),Ki (Adenosine receptor A1),Ki (Adenosine receptor A3),IC50 (Adenosine receptor A2b),SMILES
42.1 nM,57.5 nM,180 nM,> 50000 nM,O=C(Cc1ccc2ccccc2c1)Nc1nc2nn(CCc3ccccc3)cc2c2nc(-c3ccco3)nn12
39.6 nM,381 nM,189 nM,8630 nM,CCCCn1cc2c(nc(NC(=O)Cc3ccc(-c4ccccc4)cc3)n3nc(-c4ccco4)nc23)n1
31.7 nM,–,3250 nM,–,O=C(COc1ccc(Cl)cc1)Nc1nc2nn(CCc3ccccc3)cc2c2nc(-c3ccco3)nn12
31.3 nM,461 nM,1.25 nM,13700 nM,Cn1cc2c(nc(NC(=O)Cc3ccsc3)n3nc(-c4ccco4)nc23)n1
30.5 nM,410 nM,1.94 nM,8960 nM,Cn1cc2c(nc(NC(=O)Cc3cccc(Cl)c3)n3nc(-c4ccco4)nc23)n1
18.4 nM,185 nM,36.3 nM,10400 nM,CCn1cc2c(nc(NC(=O)Cc3ccc4ccccc4c3)n3nc(-c4ccco4)nc23)n1
16.1 nM,–,2310 nM,–,CC(C)CCn1cc2c(nc(NC(=O)COc3ccc(Cl)cc3)n3nc(-c4ccco4)nc23)n1
15.7 nM,140 nM,409 nM,> 10000 nM,CC(C)CCn1cc2c(nc(NC(=O)Cc3ccc4ccccc4c3)n3nc(-c4ccco4)nc23)n1
7.99 nM,160 nM,95.9 nM,5370 nM,CCCn1cc2c(nc(NC(=O)Cc3ccc4ccccc4c3)n3nc(-c4ccco4)nc23)n1
5.48 nM,–,> 10000 nM,–,CCOC(=O)[C@H]1Oc2ccc(CCCn3ncc4c3nc(N)n3nc(-c5ccco5)nc43)cc2O1
4.15 nM,70.1 nM,99.8 nM,1810 nM,CCCCn1cc2c(nc(NC(=O)Cc3cccs3)n3nc(-c4ccco4)nc23)n1
4 nM,–,> 10000 nM,–,CCOC(=O)c1ccc(CCn2ncc3c2nc(N)n2nc(-c4ccco4)nc32)cc1
3.88 nM,–,540 nM,–,CC(C)CCn1cc2c(nc(NC(=O)Cc3ccsc3)n3nc(-c4ccco4)nc23)n1
3.69 nM,51.8 nM,116 nM,5060 nM,CC(C)CCn1cc2c(nc(NC(=O)Cc3ccc(F)cc3)n3nc(-c4ccco4)nc23)n1
1.95 nM,–,359 nM,–,COc1ccc(CC(=O)Nc2nc3nn(CCC(C)C)cc3c3nc(-c4ccco4)nn23)cc1
1.86 nM,13.7 nM,273 nM,1390 nM,CC(C)CCn1cc2c(nc(NC(=O)Cc3cccc(Cl)c3)n3nc(-c4ccco4)nc23)n1
0.43 nM,–,> 10000 nM,–,CCOC(=O)COc1ccc(CCCn2ncc3c2nc(N)n2nc(-c4ccco4)nc32)cc1
